These are literature values, as cited in paper PMC4232510, “Identification of Functionally Important Residues of the Rat P2X4 Receptor by Alanine Scanning Mutagenesis of the Dorsal Fin and Left Flipper Domains” (PLoS ONE, 2014).

Where two headings read alike, the source gives them in different places.

What all share (settings): cited from earlier work
Data set [1] concerns P2X3R T196A. Set-up: method as in PMID 16226373; key: n.f.: non-functional mutants; ↑: mutant with significant increased EC50 in comparison to WT (values represent fold increase); ≈: close to WT receptor; D: affected time-constant of the desensitizing current response.
Data set [2] has as its system P2X3R S267A. Set-up: method as in PMID 16120774; key: n.f.: non-functional mutants; ↑: mutant with significant increased EC50 in comparison to WT (values represent fold increase); ≈: close to WT receptor; D: affected time-constant of the desensitizing current response.
The subject of data set [3] is P2X2R N288A. Set-up: method as in PMID 10940304.
Data set [4] has as its system P2X1R N204A. Set-up: method as in PMID 16371009.
Data set [5] relates to P2X4R N287A. Also noted: method as in PMID 17663752, PMID 15632318; key: n.f.: non-functional mutants; ↑: mutant with significant increased EC50 in comparison to WT (values represent fold increase); ≈: close to WT receptor; D: affected time-constant of the desensitizing current response.
Data set [6] deals with P2X4R L214A.
The subject of data set [7] is P2X3R N279A. Also noted: method as in PMID 21098022.
The test system of data set [8] is P2X3R E197A. Set-up: method as in PMID 15475563; key: n.f.: non-functional mutants; ↑: mutant with significant increased EC50 in comparison to WT (values represent fold increase); ≈: close to WT receptor; D: affected time-constant of the desensitizing current response.
Data set [9] concerns P2X3R S269A. Also noted: method as in PMID 16226373; key: n.f.: non-functional mutants; ↑: mutant with significant increased EC50 in comparison to WT (values represent fold increase); ≈: close to WT receptor; D: affected time-constant of the desensitizing current response.
Data set [10] deals with P2X4R I205A. Set-up: method as in PMID 24943126.
The subject of data set [11] is P2X3R M200C. Also noted: method as in PMID 24989924.
Data set [12] relates to P2X4R L206A. Also noted: method as in PMID 24943126; key: n.f.: non-functional mutants; ↑: mutant with significant increased EC50 in comparison to WT (values represent fold increase); ≈: close to WT receptor; D: affected time-constant of the desensitizing current response.

On to `Nc1ncnc2c1ncn2[C@@H]1O[C@H](COP(=O)(O)OP(=O)(O)OP(=O)(O)O)[C@@H](O)[C@H]1O` [ATP], for which the “change in EC50 for ATP” value in data set [1] was “T196A: ≈[54]”; in data set [2] it was “S267A: ≈[59]”; in [5], “N287A: ≈[10], [52]”; in [12], “L206A: ≈[49]”. Further, the “fold increase of EC50 for ATP in comparison to WT” value in data set [3] is “N288A: ↑>100x[6]”; in data set [4] it was “N204A: ↑3,5x[45]”; in data set [6] (ref 41) it was 8 x; in data set [6] (ref 49), 3 x; in [7] it was “N279A: ↑20x[4]”; in data set [10] it was “I205A: ↑2,5x[49]”. For the same molecule, the “fold increase of EC50 for ATP in comparison to WT” value in [11] was “M200C:↑8x[58]”. In addition, the change in desensitization result was “E197A: D[53]” in [8] and “S269A: D[54]” in data set [9].
